Legend:
[1] = test system: A2058 cells; assay: Annexin V-FITC apoptosis assay; type: cell-based; settings: 0-10 μM, 48 hours
Procedure: A2058 cells were treated with BA #3 in a dose dependent manner (0-10 μM) for 48 hours.

[2] = test system: human acute lymphoblastic leukemia (Molt4) cells; assay: MTS cell viability assay in Molt4 cells; type: cell-based; settings: MOLT-4, Molt4, 48 h
Procedure: (§1) Each type of cells (5,000 or 10,000 cells/well) were treated with different concentration (0.1 μM to 20 μM in 1% DMSO of berbamine and BA #3 respectively for 48 h. Then, MTS assay for cell viability were carried out to determine the IC50 values. Four samples were tested for each test compound at each concentration for each type of cells, and the averaged data were shown in Table 4 and FIGS. 12-13.

[3] = test system: Bcl-xL; assay: Western blot of Bcl-xL protein; type: cell-based; settings: 5 μM, 24 h
Procedure: (§2) To determine whether BA #3 down-regulates Stat3 downstream anti-apototic proteins Mcl-1 and Bcl-xL, cells were treated with BA #3 in a dose-dependent manner for 24 h. Western blots were performed with specific antibodies to Mcl-1 and Bcl-xL.

[4] = target: Tyk2 kinase (Homo sapiens, UniProt P29597); assay: In vitro Tyk2 kinase assay with peptide substrate; type: biochemical; settings: activated recombinant protein with peptide substrate and ATP
Sequence of Tyk2 kinase (P29597 whole entry): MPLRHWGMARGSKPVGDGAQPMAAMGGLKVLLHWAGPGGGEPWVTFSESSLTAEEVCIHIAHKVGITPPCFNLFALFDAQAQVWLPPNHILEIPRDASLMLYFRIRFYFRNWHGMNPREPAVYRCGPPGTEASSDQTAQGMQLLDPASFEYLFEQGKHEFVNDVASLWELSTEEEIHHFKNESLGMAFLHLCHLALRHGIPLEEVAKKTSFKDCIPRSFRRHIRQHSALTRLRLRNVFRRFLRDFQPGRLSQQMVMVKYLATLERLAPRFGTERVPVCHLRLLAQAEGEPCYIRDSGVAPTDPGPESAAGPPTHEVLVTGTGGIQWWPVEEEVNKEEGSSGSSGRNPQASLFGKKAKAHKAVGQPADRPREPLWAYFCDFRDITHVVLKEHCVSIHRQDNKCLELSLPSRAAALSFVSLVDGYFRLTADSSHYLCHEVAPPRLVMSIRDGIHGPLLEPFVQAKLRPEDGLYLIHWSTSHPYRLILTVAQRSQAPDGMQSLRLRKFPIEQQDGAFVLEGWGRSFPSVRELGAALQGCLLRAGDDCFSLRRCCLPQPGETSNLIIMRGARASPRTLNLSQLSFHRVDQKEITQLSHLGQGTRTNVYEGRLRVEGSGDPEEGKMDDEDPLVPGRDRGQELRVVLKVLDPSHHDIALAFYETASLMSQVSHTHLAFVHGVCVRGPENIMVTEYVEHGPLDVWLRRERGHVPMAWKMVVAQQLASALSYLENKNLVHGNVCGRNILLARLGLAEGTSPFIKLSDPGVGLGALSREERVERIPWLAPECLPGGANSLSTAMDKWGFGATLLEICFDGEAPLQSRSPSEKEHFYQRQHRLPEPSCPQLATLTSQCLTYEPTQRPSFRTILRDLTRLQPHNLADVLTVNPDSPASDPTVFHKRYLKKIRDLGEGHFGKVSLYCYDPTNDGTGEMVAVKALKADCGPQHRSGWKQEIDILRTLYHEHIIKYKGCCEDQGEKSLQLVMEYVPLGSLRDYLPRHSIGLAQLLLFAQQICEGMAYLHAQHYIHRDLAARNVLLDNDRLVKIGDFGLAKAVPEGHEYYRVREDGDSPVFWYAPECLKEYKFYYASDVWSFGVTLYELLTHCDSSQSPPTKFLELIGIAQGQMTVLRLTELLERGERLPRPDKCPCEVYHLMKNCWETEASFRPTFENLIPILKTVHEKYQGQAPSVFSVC
Description: (§3) To determine whether BA #3 inhibits activities of Src kinase, Jak2 kinase, Jak1 kinase and Tyk2 kinase in vitro, activated recombinant proteins were mixed with peptide substrates and ATP in the absence or the presence of BA #3. […] However, BA #3 reduced Jak2 autophosphorylation kinase activity at Tyr1007/1008 sites in vitro in the reaction of mixture of non-activated recombinant Jak2 protein and ATP in the absence of substrates (FIG. 19).

[5] = test system: DU145 prostate cancer cell line; assay: MTS cell viability assay in DU145 cells; type: cell-based; settings: Homo sapiens, DU-145, 48 h, DU145, 48 h
Procedure: (§4) IC50 of values of berbamine derivatives were determined in cancer cell lines DU145 and A2058 respectively. DU145 and A2058 cells (5,000 cells/well) were treated with berbamine derivatives in a dose-dependent manner (0.1 to 20 μM in 1% DMSO for 48 h. Then, MTS assay for cell viability were carried out to determine the IC50 values. Four samples were tested for each berbamine derivatives at each concentration in each cell line, and the averaged data were shown in Table 1 and FIGS. 1-8.

[6] = test system: ovarian cancer OVCAR5 cells; assay: MTS cell viability assay in OVCAR5 cells; type: cell-based; settings: Homo sapiens, OVCAR-5, OVCAR5, 48 h
Procedure: as §1

[7] = test system: melanoma A375 cells; assay: MTS cell viability assay in A375 cells; type: cell-based; settings: Homo sapiens, A-375, A375, 48 h
Procedure: as §1

[8] = test system: multiple myeloma (U266) cells; assay: MTS cell viability assay in U266 cells; type: cell-based; settings: Homo sapiens, U-266, U266, 48 h
Procedure: as §1

[9] = target: Jak2 kinase (Homo sapiens, UniProt O60674); assay: In vitro Jak2 kinase assay with peptide substrate; type: biochemical; settings: activated recombinant protein with peptide substrate and ATP
Sequence of Jak2 kinase (O60674 whole entry): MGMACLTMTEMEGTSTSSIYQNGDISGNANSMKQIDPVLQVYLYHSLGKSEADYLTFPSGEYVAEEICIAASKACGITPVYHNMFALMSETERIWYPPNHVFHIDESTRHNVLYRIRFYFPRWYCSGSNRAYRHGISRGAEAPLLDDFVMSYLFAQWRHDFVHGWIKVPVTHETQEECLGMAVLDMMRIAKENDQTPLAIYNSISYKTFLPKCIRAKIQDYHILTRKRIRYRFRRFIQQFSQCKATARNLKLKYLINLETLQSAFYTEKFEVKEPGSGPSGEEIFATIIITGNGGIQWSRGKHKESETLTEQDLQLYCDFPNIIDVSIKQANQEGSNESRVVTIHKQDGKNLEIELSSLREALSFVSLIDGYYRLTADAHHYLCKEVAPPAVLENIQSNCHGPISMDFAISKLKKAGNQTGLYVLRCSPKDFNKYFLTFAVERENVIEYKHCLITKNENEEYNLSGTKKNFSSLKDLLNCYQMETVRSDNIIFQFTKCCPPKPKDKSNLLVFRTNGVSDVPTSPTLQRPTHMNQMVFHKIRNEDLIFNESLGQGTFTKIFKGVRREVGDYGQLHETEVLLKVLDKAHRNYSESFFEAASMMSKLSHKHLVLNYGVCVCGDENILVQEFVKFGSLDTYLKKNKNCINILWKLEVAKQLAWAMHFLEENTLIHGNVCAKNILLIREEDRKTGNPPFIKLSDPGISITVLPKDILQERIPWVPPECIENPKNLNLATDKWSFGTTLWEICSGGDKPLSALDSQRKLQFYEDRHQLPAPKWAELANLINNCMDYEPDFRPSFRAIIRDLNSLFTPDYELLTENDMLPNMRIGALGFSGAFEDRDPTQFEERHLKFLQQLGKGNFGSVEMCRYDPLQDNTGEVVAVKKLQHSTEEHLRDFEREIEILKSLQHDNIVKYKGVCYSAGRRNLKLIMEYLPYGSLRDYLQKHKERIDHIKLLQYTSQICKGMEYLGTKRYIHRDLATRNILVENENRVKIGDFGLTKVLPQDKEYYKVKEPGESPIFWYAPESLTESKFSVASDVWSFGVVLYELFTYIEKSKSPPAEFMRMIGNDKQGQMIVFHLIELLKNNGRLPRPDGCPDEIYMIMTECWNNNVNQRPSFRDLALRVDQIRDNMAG
Description: as §3

[10] = test system: Jak2/Stat3 signaling; assay: Western blot of Jak2/Stat3 signaling in A2058 melanoma cells; type: cell-based; settings: 0-10 μM for 4 hour or 10 μM for 0-24 hour
Procedure: (§5) To determine whether BA #3 block Jak2/Stat3 or Src/Stat3 signaling pathway, A2058 melanoma (A and B) and erythroleukemia HEL cells were treated with BA #3 in a dose- or time-dependent manner. Western blots were performed with specific antibodies to p-Jak2, p-Src, p-Stat3, p-AKT, Jak2, Src, Stat3 and AKT.

[11] = test system: melanoma SK-MEL-5 cells; assay: MTS cell viability assay in SK-MEL-5 cells; type: cell-based; settings: Homo sapiens, SK-MEL-5, 48 h
Procedure: as §1

[12] = target: Src kinase (Homo sapiens, UniProt P12931); assay: In vitro Src kinase assay with peptide substrate; type: biochemical; settings: activated recombinant protein with peptide substrate and ATP
Sequence of Src kinase (P12931 whole entry): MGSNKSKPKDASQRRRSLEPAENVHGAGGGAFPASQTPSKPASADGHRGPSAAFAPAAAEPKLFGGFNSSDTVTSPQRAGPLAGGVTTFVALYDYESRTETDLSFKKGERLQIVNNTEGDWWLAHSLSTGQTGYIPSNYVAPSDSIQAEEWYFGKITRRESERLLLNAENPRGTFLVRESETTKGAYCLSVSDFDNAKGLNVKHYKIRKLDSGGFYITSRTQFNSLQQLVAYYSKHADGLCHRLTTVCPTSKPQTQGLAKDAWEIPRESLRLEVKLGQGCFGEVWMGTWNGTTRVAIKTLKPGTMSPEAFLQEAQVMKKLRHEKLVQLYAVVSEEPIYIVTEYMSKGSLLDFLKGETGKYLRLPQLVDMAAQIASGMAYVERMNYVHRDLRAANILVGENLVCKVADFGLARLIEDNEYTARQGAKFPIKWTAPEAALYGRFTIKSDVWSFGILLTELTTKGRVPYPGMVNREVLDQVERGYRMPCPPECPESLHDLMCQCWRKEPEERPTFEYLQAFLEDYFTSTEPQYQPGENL
Description: as §3

[13] = test system: Imatinib-resistant leukemia (K562/ADR) cells; assay: Cell viability in imatinib-resistant leukemia cells; type: cell-based
Procedure: Imatinib-resistant leukemia (K562/ADR) cells (5,000 cells/well) were treated with different concentrations (0.6-40 μM in DMSO) of BA #1, BA #3 and BA #4 respectively for 48 hours and cell viability was measured.

[14] = Maximum tolerated dose (MTD) study, body weight; type: in vivo; settings: mice, oral, 50 mg/kg and 100 mg/kg every day for 5 days
Procedure: Three test groups of mice (four mice per group) were orally administrated with vehicle only, 50 mg/kg BA #3 and 100 mg/kg BA #3 respectively every day for 5 days. Mice were weighed every day. Two sets of experiments were carried out (FIGS. 22(A) and (B)).

[15] = test system: ovarian cancer SKOV3 cells; assay: MTS cell viability assay in SKOV3 cells; type: cell-based; settings: Homo sapiens, SK-OV-3, SKOV3, 48 h
Procedure: as §1

[16] = target: Jak1 kinase (Homo sapiens, UniProt P23458); assay: In vitro Jak1 kinase assay with peptide substrate; type: biochemical; settings: activated recombinant protein with peptide substrate and ATP
Sequence of Jak1 kinase (P23458 whole entry): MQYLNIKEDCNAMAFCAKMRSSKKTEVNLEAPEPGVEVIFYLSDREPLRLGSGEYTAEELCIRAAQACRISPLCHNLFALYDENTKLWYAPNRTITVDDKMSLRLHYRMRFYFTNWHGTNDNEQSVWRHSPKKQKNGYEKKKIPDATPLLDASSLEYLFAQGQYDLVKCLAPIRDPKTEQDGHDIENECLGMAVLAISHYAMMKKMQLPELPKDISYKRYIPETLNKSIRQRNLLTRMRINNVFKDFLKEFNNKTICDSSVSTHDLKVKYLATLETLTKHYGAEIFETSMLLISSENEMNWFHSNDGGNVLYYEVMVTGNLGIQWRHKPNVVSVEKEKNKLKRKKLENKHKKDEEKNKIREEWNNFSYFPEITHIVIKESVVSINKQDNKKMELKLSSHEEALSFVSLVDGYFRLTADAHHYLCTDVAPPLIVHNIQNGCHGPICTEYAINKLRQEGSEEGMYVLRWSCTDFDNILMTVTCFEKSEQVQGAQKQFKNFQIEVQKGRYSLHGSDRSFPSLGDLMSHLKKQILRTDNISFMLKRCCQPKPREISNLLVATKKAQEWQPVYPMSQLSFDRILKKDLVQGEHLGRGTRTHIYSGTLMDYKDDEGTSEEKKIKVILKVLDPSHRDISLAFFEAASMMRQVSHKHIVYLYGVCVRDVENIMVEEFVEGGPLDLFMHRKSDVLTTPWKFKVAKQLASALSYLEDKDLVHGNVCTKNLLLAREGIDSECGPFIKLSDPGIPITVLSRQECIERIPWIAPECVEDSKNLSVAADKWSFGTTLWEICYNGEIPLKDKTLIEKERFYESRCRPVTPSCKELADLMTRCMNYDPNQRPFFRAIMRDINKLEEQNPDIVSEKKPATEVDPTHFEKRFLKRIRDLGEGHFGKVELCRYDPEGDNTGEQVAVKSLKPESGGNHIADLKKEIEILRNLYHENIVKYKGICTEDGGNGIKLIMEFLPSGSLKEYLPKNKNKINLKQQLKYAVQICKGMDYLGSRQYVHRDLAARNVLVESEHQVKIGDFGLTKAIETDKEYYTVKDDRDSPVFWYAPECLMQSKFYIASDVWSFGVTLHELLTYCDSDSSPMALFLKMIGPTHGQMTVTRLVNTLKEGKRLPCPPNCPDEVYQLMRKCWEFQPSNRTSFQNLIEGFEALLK
Description: as §3

[17] = test system: Mcl-1; assay: Western blot of Mcl-1 protein; type: cell-based; settings: 5 μM, 24 h
Procedure: as §2

[18] = test system: melanoma SK-MEL-28 cells; assay: MTS cell viability assay in SK-MEL-28 cells; type: cell-based; settings: Homo sapiens, SK-MEL-28, 48 h
Procedure: as §1

[19] = test system: Jak2/Stat3 signaling; assay: Western blot of Jak2/Stat3 signaling in erythroleukemia HEL cells; type: cell-based; settings: 0-10 μM, 4 hour
Procedure: as §5

[20] = test system: pancreatic cancer (PANC-1) cells; assay: MTS cell viability assay in PANC-1 cells; type: cell-based; settings: Homo sapiens, PANC-1, 48 h
Procedure: as §1

[21] = test system: Human normal dermal fibroblast (NHDF) cells; assay: Cell viability in normal dermal fibroblasts; type: cell-based; settings: Homo sapiens, 48 h
[22] = test system: melanoma G361 cells; assay: MTS cell viability assay in G361 cells; type: cell-based; settings: Homo sapiens, G-361, G361, 48 h
Procedure: as §1

[23] = test system: A2058 human melanoma cell line; assay: MTS cell viability assay in A2058 cells; type: cell-based; settings: Homo sapiens, A2058, 48 h
Procedure: as §4

[24] = target: non-activated recombinant Jak2 protein (autophosphorylation at Tyr1007/1008) (Homo sapiens, UniProt O60674); assay: In vitro Jak2 autophosphorylation kinase assay; type: biochemical; settings: non-activated recombinant Jak2 and ATP, no substrate, densitometry; read-out: IC50 for inhibition of autophosphorylation kinase activity
Sequence of non-activated recombinant Jak2 protein (autophosphorylation at Tyr1007/1008) (O60674 whole entry): as the sequence (O60674 whole entry) above
Description: as §3, with “FIG. 19. In vitro Jak2 autophosphorylation kinase assay of BA #3. A) Autophosphorylation of Jak2 at Tyr1007/1008 was required for its catalytic activity, non-activated recombinant Jak2 protein was mixed with ATP in the absence or presence of BA #3; B) inhibitory activity of Jak2 autophosphorylation based on the densitometry of FIG. 19(A). To” for “To”

[25] = test system: human erythroleukemia HEL (homozygous JAK2 V617F mutation) cells; assay: MTS cell viability assay in HEL cells; type: cell-based; settings: HEL Jak2 V617 mutation, 48 h
Procedure: HEL Jak2 V617 mutation cells (10,000 cells/well) were treated with different concentration (0.1 μM to 20 μM in 1% DMSO of berbamine, BA #3, and BA #10 respectively for 48 h. Then, MTS assay for cell viability were carried out to determine the IC50 values. Four samples were tested for each test compound at each concentration, and the averaged data were shown in Table 3 and FIGS. 10-11.

[26] = test system: human acute lymphocytic leukemia (Reh) cells; assay: MTS cell viability assay in Reh cells; type: cell-based; settings: 48 h
Procedure: as §1

## COc1cc2c3cc1Oc1c(OC)c(OC)cc4c1[C@@H](Cc1ccc(OCCCN5C(=O)c6ccccc6C5=O)c(c1)Oc1ccc(cc1)C[C@@H]3N(C)CC2)N(C)CC4 [BA #3]
[1]
  apoptosis (Annexin V-FITC): induced apoptosis
[2]
  IC50: 3.9 µM
[3]
  Bcl-xL protein level: down-regulated
[4]
  inhibition of Tyk2 kinase activity: did not inhibit
[5]
  IC50: 3.4 µM
[6]
  IC50: 2.8 µM
[7]
  IC50: 3.7 µM
[8]
  IC50: 6.7 µM
[9]
  inhibition of Jak2 kinase activity: did not inhibit
[10]
  Jak2/Stat3 signaling (phosphorylations of Jak, Src, Stat3 and AKT): inhibited Jak2/Stat3 signaling
[11]
  IC50: 3.3 µM
[12]
  inhibition of Src kinase activity: did not inhibit
[13]
  improvement in activity over berbamine: at least 10 fold
[13]; Homo sapiens, K562/Adr, 48 h
  IC50: 1.1 µM
[14]
  body weight versus vehicle: no significant weight differences
[15]
  IC50: 3.9 µM
[16]
  inhibition of Jak1 kinase activity: did not inhibit
[17]
  Mcl-1 protein level: down-regulated
[18]
  IC50: 3 µM
[19]
  Jak2/Stat3 signaling (phosphorylations of Jak, Src, Stat3 and AKT): inhibited Jak2/Stat3 signaling
[20]
  IC50: 6.4 µM
[21]
  IC50: 7.5 µM
[22]
  IC50: 3.1 µM
[23]
  IC50: 2.9 µM
[24]
  IC50: 0.69 µM
[25]
  IC50: 3.2 µM
[26]
  IC50: 2.9 µM
